Consider 64 molecules from a melting point compilation (Tetko et al.; mined from patent text by program, amines drawn as free bases though some values may be those of a salt).

As usually defined, the melting point is the temperature, or range, at which the solid turns liquid. For `Nc1ccc2nc(-c3ccccc3)sc2c1`, the melting point was in the range of 200 to 201 °C.
Molecule `COc1cc2ccn(C(=O)c3ccc(-c4ccc(-c5noc(C)n5)cc4C)cc3)c2cc1OCCN(C)C` displayed a melting point of 130 to 131 °C.
For `O=C1CC(c2cccc(OCc3ccccc3)c2)=Nc2ccc(N3CCOCC3)cc21`, the melting point was in the range of 283 to 285 °C.
With `CC(C)CNC(=O)C(O)C(CC1CCCCC1)NC(=O)C(Cc1c[nH]cn1)NC(=O)C(CC(=O)N1CCOCC1)Cc1cccc2ccccc12` (mixture of isomers) the figure was 119 to 125 °C.
For `ClCc1nnnn1C1CCCCC1`, the melting point lay in the range of 101 to 104 °C.
The molecule `COc1ccc2c(-c3ccccc3)csc2c1` came in with a melting point of 58 to 59 °C.
Molecule `ON=C(c1ccc(O)c(Cl)c1Cl)c1cccc2ccccc12` came in with a melting point of 145 to 160 °C.
For `COC(=O)C1CCCn2c(=O)[nH]c(=O)n21` (centres undefined), the melting point fell in the range of 215 to 216 °C.
Regarding `Cc1cccc(Cl)c1-n1nc(C(C)C)c(C(N)=O)c1N`, the melting point was 72 to 74 °C.
Turning to `Cn1c(SC(C)(CO)c2ccccc2)cc2ccccc21` (centres undefined), the melting point fell in the range of 118 to 119 °C.
With `O=C(O)Cc1cc(Br)ccc1OCc1ccccc1` the figure was 87 to 88.5 °C; with `CC(=O)c1ccc(-c2cnc3c(c2)N(Cc2ccccc2)C(=O)CN3)cc1`, 200 °C; with `Cc1nc(Cl)c2cc3c(cc2n1)OCCO3`, 168 to 170 °C.
Under `COc1ccc2c(c1)CCN(C(=O)Cc1ccc([N+](=O)[O-])cc1)C2C` (centres undefined) stands 112 to 114 °C; under `CC(=O)NNCc1c[nH]c(=S)n1[C@H]1CCc2c(F)cc(F)cc2C1`, 144 to 153 °C.
As for `O=C1SC(=O)C(F)=C1F`, the melting point was 52 to 56 °C.
Turning to `O=c1c(CCCc2ccncc2)cc2cccnc2n1-c1ccc2nsnc2c1`, the melting point lay within 194 to 196 °C.
`OC(CCN1CCN(c2ccccc2)CC1)COc1ccc(Br)cc1` (centres undefined) gave a melting point of 100 to 103 °C.
As to `CN(C)S(=O)(=O)c1cc([N+](=O)[O-])c(N)c([N+](=O)[O-])c1`, the melting point is 169 to 170 °C.
Under `Cc1c(NC(=O)CC(C)(C)C)c(C)c2c(c1-c1cccc(N3CCCC3)c1)OCC2c1ccc(C(C)C)cc1` (centres undefined) stands 206 to 207 °C; under `CCn1ccc(-c2cccc(-c3ccnc4c(C(=O)c5cccs5)cnn34)c2)n1`, 61 °C; under `COc1cc(N)c2nccc(C)c2c1OC`, 108 to 110 °C.
For the molecule `Cn1c(CNCC2CCOC2)cc2cc(NC(=O)c3ccc(OCC4CCOC4)cc3)ccc21` (centres undefined), the melting point lay in the range of 131 to 133 °C.
Regarding `CCOC(=O)c1nnc2ccc(NCCCN3CCC(OC(c4ccccc4)c4ccccc4)CC3)nn12`, the melting point was in the range of 129 to 133 °C.
With `O=C(CCCCCN1CCN(c2cccc3c2CCC3)CC1)N1Cc2ccccc2C1` the figure was 112 °C; with `O=C(O)CC1CCC2(CC1)OCCO2`, 110 to 113 °C; with `CSCCn1nc(-c2cc(C(C)(C)C)c(O)c(C(C)(C)C)c2)c2cccnc21`, 104 to 106 °C.
The molecule `O=C(CCCl)Nc1ccc(F)c(F)c1` registered a melting point of 76 °C.
Regarding `COCC(C#N)=Cc1cc(OC)c(OC)c(OC)c1`, the melting point is 79 to 81 °C.
Under `COC(=O)c1sc2ccc(Br)cc2c1-c1ccccc1` stands 125 to 126 °C; under `N#Cc1ccc2oc(CCCCc3cc4cc(C#N)ccc4o3)cc2c1`, 187 to 188 °C; under `COc1cc(OC)cc(N2CCN(C(=O)Nc3cc(-c4ccccn4)nc4ccccc34)CC2)c1`, 97 to 98 °C.
Turning to `CCOc1c(C#CCO)cc(C(C)(C)C)cc1C(C)(C)C`, the melting point lay within 82 to 84 °C.
`COC(=O)C(C)(C)OCC#Cc1cc(Cl)ccc1NS(=O)(=O)c1ccc2c(c1)OCCN2C` gave a melting point of 98 to 100 °C.
Turning to `CC1(C)COc2ccc(Cl)cc21`, the melting point was 64 to 66 °C.
Take `CCOC(=O)Cn1cc(C#N)nn1`: the melting point lay within 47 to 48 °C.
`CN(C)CC(=O)NCC#Cc1cnc2c(c1)N(Cc1c(Cl)cccc1Cl)CCN2`: the melting point was above 200 °C.
Molecule `CCOC(=O)c1cnn(C)c1C(=O)Nc1ccn2nc(Br)nc2c1` returned a melting point of 177 to 180 °C.
Take `COc1cccc([C@H]2O[C@H](CC(=O)Nc3cc(OC(C)C)c4oc(C(=O)O)cc4c3)C(=O)N(CC(C)(C)CO)c3ccc(Cl)cc32)c1OC`: the melting point lay in the range of 189 to 190 °C.
`Nc1c(Br)cc(Cl)cc1C(=O)c1ccccc1Cl` returned a melting point of 100 to 101 °C.
The molecule `O=C(Nc1ccc(C(F)(F)F)cc1)C1=NN(c2ccc(Cl)nn2)C(c2ccc(F)cc2)C1` (centres undefined) came in with a melting point of 200 to 202 °C.
As for `O[C@@H]1CN(CCc2ccccc2)CC[C@H]1c1ccccc1` (relative stereo), the melting point lay within 115 to 119 °C.
With `CCCOc1n[nH]c(=O)n1C` the figure was 74 °C; with `O=S(=O)(Oc1ccc(-c2cc3ccccc3[nH]2)cc1O)c1ccccc1`, 158 °C.
On to `COc1ccc(COc2ccc(C=C(C=O)C(C=O)=Cc3ccc(OCc4ccc(OC)cc4)cc3)cc2)cc1`, for which the melting point lay in the range of 218 to 220 °C.
With `O=c1cc2c(nn1-c1ccccc1)-c1cc(Cl)ccc1CC2`, the melting point fell in the range of 184 to 186 °C.
Take `CCCCOC(=O)Cc1nc(-c2ccc(F)cc2)oc1-c1ccsc1`: the melting point is 81 to 82 °C.
`O=C(Cc1ccc([N+](=O)[O-])cc1)c1ccc([N+](=O)[O-])cc1` displayed a melting point of 131 to 133 °C.
Molecule `CC(NC(=O)CCBr)c1ccccc1` (centres undefined) had a melting point of 69 to 70 °C.
`CC1C[C@@H]2[C@H](O1)[C@@H](NC(=O)OC(C)(C)C)CN2Cc1ccccc1` (relative stereo) registered a melting point of 56 to 60 °C.
With `CN(C)C(=O)N1CCC(c2nn(-c3ccc(C(F)(F)F)cc3)c3ccccc23)CC1` the figure was 117 to 119 °C; with `CNC(=O)C1=CC(CF)(CF)Oc2ccc(Cl)cc21`, 175 to 176 °C; with `Nc1sc2c(c1C(=O)c1ccc(I)c3ccccc13)CCC2`, 253 to 255 °C.
As to `CCCCN(CCCC)CCCCC(=O)c1ccc2c(c1)Cc1cc(C(=O)CCCCN(CCCC)CCCC)ccc1-2`, the melting point was 48 to 50 °C.
The molecule `Cc1cc(C=O)cc(C=O)c1OCCCC(c1ccc(F)cc1)c1ccc(F)cc1` gave a melting point of 97 °C.
In the case of `CC(C)N1C(=O)c2cccnc2NS1(=O)=O`, the melting point was 190 °C.
With `CNCc1ccc2cc(O)ccc2c1` the figure was 168 to 169 °C; with `COc1cc(C=C2NC(=O)NC2=O)cc(OC)c1O`, 296 to 297 °C; with `CSCC[C@H](NC(=O)[C@@H](N)CC(C)C)[C@@H](O)c1nccs1`, 83 to 85 °C.
Regarding `Cc1onc(-c2ccccc2)c1-c1[nH]c2ccccc2c1CCN(C)C`, the melting point was in the range of 142 to 144 °C.
With `Cc1cccc(-c2cc(Cl)nc3ccc(C(=O)c4ccc(Cl)cc4)cc23)c1`, the melting point was 199 °C.
`Cc1nc2c(C(F)(F)F)cccc2c(O)c1C(=O)O` yielded a melting point of 260 °C.
Molecule `Cc1cc([N+](=O)[O-])ccc1NC(=O)c1cc(C(C)(C)C)ccc1O` yielded a melting point of 202 to 204 °C.
Under `O=C(NCc1ccccn1)c1cc2ccnc(Cl)c2[nH]1` stands 177 to 183 °C.
